Paper PMC11249646, “Small-Molecule Disruptors of the Interaction between Calcium- and Integrin-Binding Protein 1 and Integrin αIIbβ3 as Novel Antiplatelet Agents” (ACS Pharmacology & Translational Science, 2024)

The molecules below were run against T1, GST-CIB1 : F-scrambled peptide (Homo sapiens, UniProt Q99828) (assay: FP scrambled-peptide counter screen, 1536-well format). Conditions: counterscreen.
T1 construct: made in house; host or cells: BL-21 plus RIL cells (E. coli)
T1 sequence (Q99828 1-191): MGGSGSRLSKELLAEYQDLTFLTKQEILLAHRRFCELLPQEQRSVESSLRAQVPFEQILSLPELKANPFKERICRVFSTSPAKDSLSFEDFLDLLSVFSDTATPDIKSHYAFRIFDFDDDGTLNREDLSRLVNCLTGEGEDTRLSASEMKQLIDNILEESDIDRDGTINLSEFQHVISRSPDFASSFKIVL
Format: binding

Compound	Efficacy (%) (counterscreen)	COUNTERSCREEN Efficacy (%)
C[C@H]1COC2=C1C(=O)C(=O)c1c2ccc2c1CCCC2(C)C [NCGC00163650-02]		-18%
O=C(O)Cc1ccc(CCNS(=O)(=O)c2ccc(Cl)cc2)cc1 [NCGC00165787-03]		0%
CNc1ccc(C(=O)Oc2cc(ON=[N+]([O-])N(C)C)c([N+](=O)[O-])cc2[N+](=O)[O-])cc1 [NCGC00168169-02]	-40%	

Continued, in another order:

Efficacy (%) (counterscreen)	Compound	COUNTERSCREEN Efficacy (%)
-57%	O=C1Nc2cc(Cl)ccc2Nc2cscc21 [NCGC00167991-01]	
93%	CCCCC(CC)CNC(=N)NC(=N)NCCCCCCNC(=N)NC(=N)NCC(CC)CCCC.Cl.Cl.Cl (centres unmarked) [NCGC00178352-06]	

Same assay, conditions: counterscreen, YES/NO

Confirm? (counterscreen)	Compound
YES	CCCCC(CC)CNC(=N)NC(=N)NCCCCCCNC(=N)NC(=N)NCC(CC)CCCC.Cl.Cl.Cl (centres unmarked) [NCGC00178352-06]

Same assay, conditions: counterscreen, qHTS curve class

Compound	COUNTERSCREEN Curve Class
C[C@H]1COC2=C1C(=O)C(=O)c1c2ccc2c1CCCC2(C)C [NCGC00163650-02]	4
O=C(O)Cc1ccc(CCNS(=O)(=O)c2ccc(Cl)cc2)cc1 [NCGC00165787-03]	4

Same assay, conditions: counterscreen, qHTS curve class; negative sign = inhibitory curve

Curve Class (counterscreen)	Compound
-3	O=C1Nc2cc(Cl)ccc2Nc2cscc21 [NCGC00167991-01]
3	CCCCC(CC)CNC(=N)NC(=N)NCCCCCCNC(=N)NC(=N)NCC(CC)CCCC.Cl.Cl.Cl (centres unmarked) [NCGC00178352-06]

Compound	Curve Class (counterscreen)
CNc1ccc(C(=O)Oc2cc(ON=[N+]([O-])N(C)C)c([N+](=O)[O-])cc2[N+](=O)[O-])cc1 [NCGC00168169-02]	-2.2

Same assay, conditions: counterscreen; read-out: IC50 [μM] (counterscreen)

IC50	Compound
50.1 µM	O=C1Nc2cc(Cl)ccc2Nc2cscc21 [NCGC00167991-01]
100 µM	CCCCC(CC)CNC(=N)NC(=N)NCCCCCCNC(=N)NC(=N)NCC(CC)CCCC.Cl.Cl.Cl (centres unmarked) [NCGC00178352-06]

Compound	IC50
CNc1ccc(C(=O)Oc2cc(ON=[N+]([O-])N(C)C)c([N+](=O)[O-])cc2[N+](=O)[O-])cc1 [NCGC00168169-02]	39.8 µM

What follows are molecules tested against T2, CIB1 and αIIb interaction (CIB1-GST : F-αIIb peptide) (Homo sapiens, UniProt Q99828) (assay: FP assay, 1536-well qHTS format (primary and confirmatory screen)). Conditions: confirmatory screen.
T2 construct: made in house; host or cells: BL-21 plus RIL cells (E. coli)
T2 sequence (Q99828 1-191): T1 sequence (Q99828 1-191)
Format: binding

Compound	Efficacy (%) (confirmatory screen)	CONFIRMATORY SCREEN Efficacy (%)
C[C@H]1COC2=C1C(=O)C(=O)c1c2ccc2c1CCCC2(C)C [NCGC00163650-02]		0%
O=C(O)Cc1ccc(CCNS(=O)(=O)c2ccc(Cl)cc2)cc1 [NCGC00165787-03]		14%
CNc1ccc(C(=O)Oc2cc(ON=[N+]([O-])N(C)C)c([N+](=O)[O-])cc2[N+](=O)[O-])cc1 [NCGC00168169-02]	-42%	

Continued, in another order:

Efficacy (%) (confirmatory screen)	Compound	CONFIRMATORY SCREEN Efficacy (%)
-75%	O=C1Nc2cc(Cl)ccc2Nc2cscc21 [NCGC00167991-01]	
-86%	CCCCC(CC)CNC(=N)NC(=N)NCCCCCCNC(=N)NC(=N)NCC(CC)CCCC.Cl.Cl.Cl (centres unmarked) [NCGC00178352-06]	

Same assay, conditions: confirmatory screen, YES/NO

Confirm? (confirmatory screen)	Compound
YES	O=C1Nc2cc(Cl)ccc2Nc2cscc21 [NCGC00167991-01]
YES	CCCCC(CC)CNC(=N)NC(=N)NCCCCCCNC(=N)NC(=N)NCC(CC)CCCC.Cl.Cl.Cl (centres unmarked) [NCGC00178352-06]

Compound	Confirm? (confirmatory screen)
CNc1ccc(C(=O)Oc2cc(ON=[N+]([O-])N(C)C)c([N+](=O)[O-])cc2[N+](=O)[O-])cc1 [NCGC00168169-02]	YES

Same assay, conditions: confirmatory screen, qHTS curve class

Compound	CONFIRMATORY SCREEN Curve Class
C[C@H]1COC2=C1C(=O)C(=O)c1c2ccc2c1CCCC2(C)C [NCGC00163650-02]	4
O=C(O)Cc1ccc(CCNS(=O)(=O)c2ccc(Cl)cc2)cc1 [NCGC00165787-03]	4

Same assay, conditions: confirmatory screen, qHTS curve class; negative sign = inhibitory curve

Curve Class (confirmatory screen)	Compound
-3	O=C1Nc2cc(Cl)ccc2Nc2cscc21 [NCGC00167991-01]
-2.1	CCCCC(CC)CNC(=N)NC(=N)NCCCCCCNC(=N)NC(=N)NCC(CC)CCCC.Cl.Cl.Cl (centres unmarked) [NCGC00178352-06]

Compound	Curve Class (confirmatory screen)
CNc1ccc(C(=O)Oc2cc(ON=[N+]([O-])N(C)C)c([N+](=O)[O-])cc2[N+](=O)[O-])cc1 [NCGC00168169-02]	-1.2

Same assay, conditions: confirmatory screen; read-out: IC50 [μM] (confirmatory screen)

Compound	IC50
CNc1ccc(C(=O)Oc2cc(ON=[N+]([O-])N(C)C)c([N+](=O)[O-])cc2[N+](=O)[O-])cc1 [NCGC00168169-02]	14.1 µM
CCCCC(CC)CNC(=N)NC(=N)NCCCCCCNC(=N)NC(=N)NCC(CC)CCCC.Cl.Cl.Cl (centres unmarked) [NCGC00178352-06]	28.2 µM

Same assay, conditions: qHTS FP screen hits, Table S2; negative = inhibition

Efficacy (%)	Compound
-61%	O=C(O)Cc1ccc(CCNS(=O)(=O)c2ccc(Cl)cc2)cc1 [NCGC00165787-03]
-55%	CCCCC(CC)CNC(=N)NC(=N)NCCCCCCNC(=N)NC(=N)NCC(CC)CCCC.Cl.Cl.Cl (centres unmarked) [NCGC00178352-06]

Compound	Efficacy (%)
CNc1ccc(C(=O)Oc2cc(ON=[N+]([O-])N(C)C)c([N+](=O)[O-])cc2[N+](=O)[O-])cc1 [NCGC00168169-02]	-30%

Same assay, conditions: qHTS FP screen hits, Table S2; one class per curve where COUNT > 1; negative sign = inhibitory curve

Curve Class	Compound
-2.2	O=C(O)Cc1ccc(CCNS(=O)(=O)c2ccc(Cl)cc2)cc1 [NCGC00165787-03]
-1.2	CCCCC(CC)CNC(=N)NC(=N)NCCCCCCNC(=N)NC(=N)NCC(CC)CCCC.Cl.Cl.Cl (centres unmarked) [NCGC00178352-06]

Compound	Curve Class
CNc1ccc(C(=O)Oc2cc(ON=[N+]([O-])N(C)C)c([N+](=O)[O-])cc2[N+](=O)[O-])cc1 [NCGC00168169-02]	-1.2

Same assay, conditions: qHTS FP screen hits, Table S2; read-out: IC50

IC50	Compound
79.4 µM	O=C(O)Cc1ccc(CCNS(=O)(=O)c2ccc(Cl)cc2)cc1 [NCGC00165787-03]
22.4 µM	CCCCC(CC)CNC(=N)NC(=N)NCCCCCCNC(=N)NC(=N)NCC(CC)CCCC.Cl.Cl.Cl (centres unmarked) [NCGC00178352-06]

Compound	IC50
CNc1ccc(C(=O)Oc2cc(ON=[N+]([O-])N(C)C)c([N+](=O)[O-])cc2[N+](=O)[O-])cc1 [NCGC00168169-02]	22.4 µM

Same assay, conditions: qHTS primary screen hits, Table S2; negative = inhibition

Compound	Efficacy (%)
C[C@H]1COC2=C1C(=O)C(=O)c1c2ccc2c1CCCC2(C)C [NCGC00163650-02]	-26%
O=C1Nc2cc(Cl)ccc2Nc2cscc21 [NCGC00167991-01]	-66%

Same assay, conditions: qHTS primary screen hits, Table S2; negative sign = inhibitory curve; several classes where COUNT > 1

Compound	Curve Class
C[C@H]1COC2=C1C(=O)C(=O)c1c2ccc2c1CCCC2(C)C [NCGC00163650-02]	-2.4
O=C1Nc2cc(Cl)ccc2Nc2cscc21 [NCGC00167991-01]	-2.2

Same assay, conditions: qHTS primary screen hits, Table S2; read-out: IC50

Compound	IC50
C[C@H]1COC2=C1C(=O)C(=O)c1c2ccc2c1CCCC2(C)C [NCGC00163650-02]	30.4 µM
O=C1Nc2cc(Cl)ccc2Nc2cscc21 [NCGC00167991-01]	79.4 µM
